Results reported in publication PMC8617031, “Development of a BCL-xL and BCL-2 dual degrader with improved anti-leukemic activity,” (Nature Communications, 2021).
Values joined by “and” are separate entries in the source; they are usually repeats but may differ in a detail not shown here. Equal values may be shown once.

Key:
BCL-2 = molecular target: T1, BCL-2 (Homo sapiens, UniProt P10415); assay: BCL-2 degradation by immunoblot in Kasumi-1 cells; format: cell-based; settings: Fig. 7b; for BCL-2 level, bar graph (0 = 100): two replicate columns
T1 construct: endogenous in cells
Description: (§1) Tubulin was used as an equal loading control. […] For the viability assays, the data are presented as mean ± s.d. from three replicate cell cultures in a representative experiment. Similar results were also observed in two additional independent experiments. d Representative immunoblot analyses of Kasumi-1 cells 16 h after treatment as indicated. […] Data are representative of two independent experiments. The dotted line represents the value from DMSO-treated cells. Source data are provided as a Source data file.
(§2) Cells were collected, washed once with ice-cold phosphate-buffered saline, pH 7.2 (PBS, cat. no. 20012027; Thermo Fisher Scientific) and lysed in RIPA lysis buffer (Cat. No. BP-115DG, Boston Bio Products, Ashland, MA, USA) supplemented with protease and phosphatase inhibitor cocktails (Cat. No. PPC1010, Sigma-Aldrich, St. Louis, MO, USA) through sonication. The samples were centrifuged at 14,000 r.p.m. for 5 min and the supernatants were transferred into a new tube. The protein concentration in the supernatants was determined using the Pierce BCA protein Assay kit (cat. no. 23225, Thermo Fisher Scientific). The protein concentration was normalized, and the samples were reduced in 4× Laemmli’s SDS-sample buffer (cat. no. BP-110R, Boston Bio Products) and denatured at 95 °C for 5 min. An equal amount of protein samples (20–40 μg per lane) were resolved using precast 4–20% Tris-glycine gels (Mini-PROTEAN TGX, cat. no. 456–1094, Bio-Rad), and resolved proteins were transferred onto 0.2-µm pore size polyvinylidene difluoride (PVDF) blotting membranes (cat. no. LC2002, Thermo Fisher Scientific) using mini trans-blot electrophoretic transfer cell (Bio-Rad). The membranes were blocked with non-fat dry milk (5% wt/vol) in 1× Tris-buffered saline-Tween-20 (TBST, cat. no. J77500, Affymetrix) for 1 h at room temperature, and were subsequently probed with primary antibodies at a predetermined optimal concentration in non-fat dry milk (5% wt/vol in TBST) overnight at 4 °C. The membranes were washed three times (5 min each) in TBST and then incubated with horse radish peroxidase (HRP)-conjugated secondary antibodies for 1 h at room temperature. Following sufficient washing with TBST, the membranes were exposed with chemiluminescent HRP substrate (cat. no. WBKLS0500, MilliporeSigma), and the signal was detected using the ChemiDoc MP Imaging System (Bio-Rad) and quantified using the ImageJ (v1.53a) software from NIH.

293T cells = assay: Viability (MTS) of 293T cells; format: cell-based, human; settings: for 293T cell viability, MTS absorbance 490 as percent of untreated control, mean of three wells / 293T cell viability, MTS absorbance 490 as percent of control, mean of three wells, left block of Plate 29: mean of 3 wells; for 293T cell viability, MTS absorbance 490 as percent of untreated control, mean of three wells / 293T cell viability, MTS absorbance 490 as percent of untreated control, single replicate well: normalised to own plate; for 293T cell viability, MTS absorbance 490 as percent of control, mean of three wells, left block of Plate 29: Plate 29 normalised with blank 0.332667 and control 0.923167 of Plate 30
Description: Suspension cells were treated 30 min after seeding, whereas adherent cells were allowed to adhere overnight and were then treated. Compound treatments were prepared in complete cell culture medium and 100 µl of 2× treatment-containing medium were added to each well. Complete cell culture medium without treatment was added in control wells, and wells containing medium without cells served as background. The outer wells of the 96-well plate were not used for treatment and were filled with 250 µl of PBS to reduce evaporation of medium from inner wells. Each compound and/or combination was tested at nine different concentrations with three replicates. The cell viability was measured after 72 h by tetrazolium-based MTS assay. MTS reagent (2 mg ml^–1 stock; cat. no. G1111, Promega) was freshly supplemented with phenazine methosulfate (PMS, 0.92 mg ml^–1 stock, cat. no. P9625, Sigma-Aldrich) in 20:1 ratio, and 20 µl of this mixture was added to each control and treatment well. The cells were incubated for 4 h at 37 °C and 5% CO2, and then the absorbance was recorded at 490 nm using Biotek’s Synergy Neo2 multimode plate reader (Biotek). The average absorbance value of background wells was subtracted from absorbance value of each control and treatment well, and percent cell viability ((At/A0) × 100)) was determined in each treatment well, where At is the absorbance value of the treatment well and A0 is the average absorbance value of control wells after background subtraction. The data were expressed as average percentage cell viability and fitted in non-linear regression curves using GraphPad Prism 7 (GraphPad Software, La Jolla, CA, USA).

BCL-xL = molecular target: T2, BCL-xL (Homo sapiens, UniProt Q07817); assay: BCL-xL degradation by immunoblot in Kasumi-1 cells; format: cell-based; settings: Fig. 7b; for BCL-xL level, bar graph (0 = 100): two replicate columns
T2 construct: endogenous in cells
Description: as §1, §2

T2 sequence (Q07817 whole entry): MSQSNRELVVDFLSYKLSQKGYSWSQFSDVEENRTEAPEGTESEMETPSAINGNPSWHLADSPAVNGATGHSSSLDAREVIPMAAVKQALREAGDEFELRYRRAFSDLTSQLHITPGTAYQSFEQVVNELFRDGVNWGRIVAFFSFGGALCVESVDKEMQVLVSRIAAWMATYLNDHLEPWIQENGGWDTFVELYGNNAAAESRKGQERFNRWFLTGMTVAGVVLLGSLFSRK
T1 sequence (P10415 whole entry): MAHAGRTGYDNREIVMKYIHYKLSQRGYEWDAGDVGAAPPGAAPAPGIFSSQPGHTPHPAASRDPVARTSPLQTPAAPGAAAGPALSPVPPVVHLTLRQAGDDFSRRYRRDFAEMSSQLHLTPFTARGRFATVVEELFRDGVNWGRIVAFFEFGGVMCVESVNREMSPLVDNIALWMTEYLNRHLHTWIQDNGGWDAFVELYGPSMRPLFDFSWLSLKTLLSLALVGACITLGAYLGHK

Structure (SMILES) | BCL-2 level, bar graph (0 = 100) (BCL-2; concentration 0.01) | BCL-2 level, bar graph (0 = 100) (BCL-2; concentration 0.03) | BCL-2 level, bar graph (0 = 100) (BCL-2; concentration 0.1) | BCL-2 level, bar graph (0 = 100) (BCL-2; concentration 0.3) | BCL-2 level, bar graph (0 = 100) (BCL-2; concentration 1) | 293T cell viability, MTS absorbance 490 as percent of untreated control, mean of three wells (293T cells; 0.00137174 uM) | 293T cell viability, MTS absorbance 490 as percent of untreated control, single replicate well (293T cells; 0.00137174 uM) | 293T cell viability, MTS absorbance 490 as percent of untreated control, mean of three wells (293T cells; 0.00411523 uM) | 293T cell viability, MTS absorbance 490 as percent of untreated control, single replicate well (293T cells; 0.00411523 uM) | 293T cell viability, MTS absorbance 490 as percent of untreated control, single replicate well (293T cells; 0.037037 uM) | 293T cell viability, MTS absorbance 490 as percent of untreated control, single replicate well (293T cells; 0.111111 uM) | 293T cell viability, MTS absorbance 490 as percent of untreated control, single replicate well (293T cells; 0.333333 uM) | 293T cell viability, MTS absorbance 490 as percent of untreated control, single replicate well (293T cells; 1 uM) | 293T cell viability, MTS absorbance 490 as percent of untreated control, single replicate well (293T cells; 3 uM) | BCL-xL level, bar graph (0 = 100) (BCL-xL; concentration 0.01) | BCL-xL level, bar graph (0 = 100) (BCL-xL; concentration 0.03) | BCL-xL level, bar graph (0 = 100) (BCL-xL; concentration 0.1) | BCL-xL level, bar graph (0 = 100) (BCL-xL; concentration 0.3) | BCL-xL level, bar graph (0 = 100) (BCL-xL; concentration 1) | other results
Cc1ncsc1-c1ccc([C@H](C)NC(=O)[C@@H]2C[C@@H](O)CN2C(=O)[C@@H](NC(=O)CCCCCCC(=O)N2CCN(C[C@]3(C)CCC(c4ccc(Cl)cc4)=C(CN4CCN(c5ccc(C(=O)NS(=O)(=O)c6ccc(N[C@H](CCN7CCOCC7)CSc7ccccc7)c(S(=O)(=O)C(F)(F)F)c6)cc5)CC4)C3)CC2)C(C)(C)C)cc1 [753b] | 66 and 60 | 44 and 48 | 36 and 21 | 32 and 26 | 36 and 25 | 105.831 | 104.459 and 107.926 and 105.109 | 107.998 | 111.934 and 109.117 and 102.943 | 111.175 and 116.05 and 98.9348 | 120.383 and 115.183 and 102.834 | 118.975 and 109.225 and 99.9097 | 117.133 and 117.566 and 109.117 | 74.5622 and 86.911 and 76.512 | 38 and 35 | 15 and 18 | 8 and 6 | 7 and 5 | 6 and 5 | BCL-2 degradation in Kasumi-1 cells (in words) (BCL-2; Kasumi-1 cells, 16 h): could also degrade BCL-2; 293T cell viability, MTS absorbance 490 as percent of untreated control, mean of three wells (293T cells; 0.037037 uM): 108.72; 293T cell viability, MTS absorbance 490 as percent of untreated control, mean of three wells (293T cells; 0.111111 uM): 112.8; 293T cell viability, MTS absorbance 490 as percent of untreated control, mean of three wells (293T cells; 0.333333 uM): 109.37; 293T cell viability, MTS absorbance 490 as percent of untreated control, mean of three wells (293T cells; 1 uM): 114.606; 293T cell viability, MTS absorbance 490 as percent of untreated control, mean of three wells (293T cells; 3 uM): 79.3284; BCL-xL degradation in Kasumi-1 cells (in words) (BCL-xL; Kasumi-1 cells, 16 h, compared with DT2216): more potent BCL-xL degradation
CC1(C)CCC(c2ccc(Cl)cc2)=C(CN2CCN(c3ccc(C(=O)NS(=O)(=O)c4ccc(N[C@H](CCN5CCOCC5)CSc5ccccc5)c(S(=O)(=O)C(F)(F)F)c4)cc3)CC2)C1 [ABT263, navitoclax] | – | – | – | – | – | 97.7794 | 98.6099 and 98.5015 | 103.484 | 107.709 and 108.359 | 116.375 and 110.092 | 96.1184 and 122.874 and 120.166 | 101.968 and 111.934 | 97.2017 and 104.893 | 60.8052 and 61.6718 | – | – | – | – | – | –
Cc1ncsc1-c1ccc([C@H](C)NC(=O)[C@@H]2C[C@@H](O)CN2C(=O)[C@@H](NC(=O)CCCCCC(=O)N2CCN(CC[C@H](CSc3ccccc3)Nc3ccc(S(=O)(=O)NC(=O)c4ccc(N5CCN(CC6=C(c7ccc(Cl)cc7)CCC(C)(C)C6)CC5)cc4)cc3S(=O)(=O)C(F)(F)F)CC2)C(C)(C)C)cc1 [DT2216] | 96 and 105 | 90 and 102 | 92 and 98 | 91 and 99 | 80 and 89 | – | 104.404 and 98.1429 and 94.4287 | – | 102.282 and 94.7471 and 94.8532 | 91.8819 and 102.706 | 93.8981 and 94.0042 | 110.453 and 97.4001 and 86.682 | 109.179 and 101.433 and 82.4372 | 92.5186 and 77.1312 | 86 and 92 | 59 and 63 | 38 and 33 | 22 and 25 | 11 and 12 | 293T cell viability, MTS absorbance 490 as percent of control, mean of three wells, left block of Plate 29 (293T cells; 0.00137174 uM): 100.343; 293T cell viability, MTS absorbance 490 as percent of control, single replicate well, left block of Plate 29 (293T cells; 0.00137174 uM, Plate 29 normalised with blank 0.332667 and control 0.923167 of Plate 30, 0.00137174 µM): 99.4764 and 95.6851; 293T cell viability, MTS absorbance 490 as percent of control, mean of three wells, left block of Plate 29 (293T cells; 0.00411523 uM): 98.6099; 293T cell viability, MTS absorbance 490 as percent of control, single replicate well, left block of Plate 29 (293T cells; 0.00411523 uM, Plate 29 normalised with blank 0.332667 and control 0.923167 of Plate 30, 0.00411523 µM): 96.0101 and 96.1184; 293T cell viability, MTS absorbance 490 as percent of control, mean of three wells, left block of Plate 29 (293T cells; 0.037037 uM): 101.101; 293T cell viability, MTS absorbance 490 as percent of control, single replicate well, left block of Plate 29 (293T cells; 0.037037 uM, Plate 29 normalised with blank 0.332667 and control 0.923167 of Plate 30, 0.037037 µM): 93.0854 and 104.134; 293T cell viability, MTS absorbance 490 as percent of control, mean of three wells, left block of Plate 29 (293T cells; 0.111111 uM): 100.235; 293T cell viability, MTS absorbance 490 as percent of control, single replicate well, left block of Plate 29 (293T cells; 0.111111 uM, Plate 29 normalised with blank 0.332667 and control 0.923167 of Plate 30, 0.111111 µM): 95.1435 and 95.2519; 293T cell viability, MTS absorbance 490 as percent of control, mean of three wells, left block of Plate 29 (293T cells; 0.333333 uM): 99.5125; 293T cell viability, MTS absorbance 490 as percent of control, single replicate well, left block of Plate 29 (293T cells; 0.333333 uM, Plate 29 normalised with blank 0.332667 and control 0.923167 of Plate 30, 0.333333 µM): 112.042 and 98.7182 and 87.7776; 293T cell viability, MTS absorbance 490 as percent of control, mean of three wells, left block of Plate 29 (293T cells; 1 uM): 99.007; 293T cell viability, MTS absorbance 490 as percent of control, single replicate well, left block of Plate 29 (293T cells; 1 uM, Plate 29 normalised with blank 0.332667 and control 0.923167 of Plate 30, 1 µM): 110.742 and 102.834 and 83.4447; 293T cell viability, MTS absorbance 490 as percent of control, mean of three wells, left block of Plate 29 (293T cells; 3 uM): 87.4526; 293T cell viability, MTS absorbance 490 as percent of control, single replicate well, left block of Plate 29 (293T cells; 3 uM, Plate 29 normalised with blank 0.332667 and control 0.923167 of Plate 30, 3 µM): 93.7353 and 78.0285
